Assay results from article PMC10746543, “Design principles for cyclin K molecular glue degraders” (Nature Chemical Biology, 2023).
“And” between values parts separate entries of the source, which are not always exact repeats. Equal values may be shown once. Read-outs that look alike come from different tables or passages of the source.

Columns and labels:
CDK12 = biological target: CDK12; set-up: method as in PMID 30065029; conditions: read-out: CDK12 binding affinity; cited from earlier work
CDK12–cyclin K and DDB1 [1] = biological target: T1, CDK12–cyclin K and DDB1 (Homo sapiens, UniProt Q16531+Q9NYV4, K965R); assay: TR-FRET ternary complex formation assay (compound titration); type: binding
T1 construct: His6–CDK12 (a.a. 713–1,052); full-length or beta-propeller B domain deletion (ΔBPB: a.a. 396–705 deleted) constructs of His6–DDB1ΔBPB, StrepII–Avi–DDB1, or His6–Spy–DDB1; made in house; host or cells: Trichoplusia ni High Five insect cells (baculovirus)
T1 sequence (Q9NYV4 713-1052 K965R): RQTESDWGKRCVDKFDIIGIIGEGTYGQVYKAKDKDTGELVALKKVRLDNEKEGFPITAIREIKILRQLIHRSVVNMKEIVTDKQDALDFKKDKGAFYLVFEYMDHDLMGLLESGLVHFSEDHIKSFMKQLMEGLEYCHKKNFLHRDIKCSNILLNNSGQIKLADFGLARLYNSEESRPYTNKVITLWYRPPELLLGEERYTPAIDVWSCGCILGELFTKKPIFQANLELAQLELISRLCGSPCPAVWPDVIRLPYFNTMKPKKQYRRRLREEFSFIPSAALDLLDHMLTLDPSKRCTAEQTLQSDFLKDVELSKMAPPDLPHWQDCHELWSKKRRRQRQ
T1 sequence (O75909 1-267 partner): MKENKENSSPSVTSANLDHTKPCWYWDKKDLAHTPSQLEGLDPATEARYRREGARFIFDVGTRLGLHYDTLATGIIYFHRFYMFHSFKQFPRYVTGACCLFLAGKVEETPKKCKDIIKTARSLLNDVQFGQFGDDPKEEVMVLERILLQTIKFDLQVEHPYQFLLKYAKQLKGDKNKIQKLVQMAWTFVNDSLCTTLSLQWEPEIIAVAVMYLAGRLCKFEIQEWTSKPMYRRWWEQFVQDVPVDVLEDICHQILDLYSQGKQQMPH
T1 sequence (Q16531 whole entry): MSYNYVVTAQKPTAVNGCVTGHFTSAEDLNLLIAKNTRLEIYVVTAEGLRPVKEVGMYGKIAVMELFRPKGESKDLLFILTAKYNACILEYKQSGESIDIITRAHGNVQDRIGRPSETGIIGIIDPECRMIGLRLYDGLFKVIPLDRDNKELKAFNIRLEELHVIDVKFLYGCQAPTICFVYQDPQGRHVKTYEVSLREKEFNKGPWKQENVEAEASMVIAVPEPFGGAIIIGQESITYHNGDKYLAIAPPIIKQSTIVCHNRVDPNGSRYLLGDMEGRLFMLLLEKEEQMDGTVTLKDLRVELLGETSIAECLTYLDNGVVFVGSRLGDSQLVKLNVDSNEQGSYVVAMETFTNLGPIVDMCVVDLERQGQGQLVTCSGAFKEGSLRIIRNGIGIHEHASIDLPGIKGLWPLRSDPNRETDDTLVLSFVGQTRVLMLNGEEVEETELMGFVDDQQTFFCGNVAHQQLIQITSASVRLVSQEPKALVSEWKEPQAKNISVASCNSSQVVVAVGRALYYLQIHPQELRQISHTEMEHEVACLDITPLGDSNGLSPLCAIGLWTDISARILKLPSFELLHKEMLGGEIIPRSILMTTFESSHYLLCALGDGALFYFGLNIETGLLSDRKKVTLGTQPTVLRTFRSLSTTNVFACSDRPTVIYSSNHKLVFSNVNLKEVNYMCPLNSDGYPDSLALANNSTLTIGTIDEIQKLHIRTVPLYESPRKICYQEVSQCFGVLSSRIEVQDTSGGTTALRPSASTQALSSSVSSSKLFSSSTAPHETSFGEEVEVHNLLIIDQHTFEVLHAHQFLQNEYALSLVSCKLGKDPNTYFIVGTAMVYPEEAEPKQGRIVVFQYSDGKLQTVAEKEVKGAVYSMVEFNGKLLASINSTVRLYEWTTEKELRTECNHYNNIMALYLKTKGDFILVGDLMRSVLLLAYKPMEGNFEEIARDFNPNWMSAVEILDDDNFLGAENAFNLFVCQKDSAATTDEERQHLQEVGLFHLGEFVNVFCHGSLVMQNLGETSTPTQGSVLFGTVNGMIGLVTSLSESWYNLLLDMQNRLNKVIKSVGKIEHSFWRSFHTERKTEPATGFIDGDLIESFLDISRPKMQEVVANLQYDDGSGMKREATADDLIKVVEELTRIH
Outline: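 Signal was the ratio of 520 nm to 490 nm fluorescence, measured after a 70 μs delay that reduced background.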

CDK12–cyclin K and DDB1 [2] = biological target: T1, CDK12–cyclin K and DDB1; assay: TR-FRET Kd determination, quadratic fit, 50 nM or 10 nM CDK12–cyclin K; type: binding
Text: Equation (2) is a quadratic binding equation used for Kd determination,where Top and Bottom refer to the curve plateaus. […]

[3] = in vitro complex formation, 50 nM CDK12–cyclin K, 100 nM DDB1, text and figures, read-out: TR-FRET EC50
[4] = source data sheet correlations, read-out: TR-FRET EC50
[5] = 10 nM CDK12-cyclin K + 100 nM DDB1, n = 1

**Q.** For `C[C@H](C(=O)Nc1nc2ccccc2[nH]1)N1Cc2ccccc2C1=O` [compound 919278], which Kd (CDK12) is on record?
**A.** 5600 nM

**Q.** What about the TR-FRET signal (CDK12–cyclin K and DDB1 [1]; compound concentration 0.468 nM) of the same compound?
**A.** 0.3356 and 0.3148

**Q.** And the TR-FRET signal (CDK12–cyclin K and DDB1 [1]; compound concentration 2.16 nM)?
**A.** 0.4152 and 0.4184

**Q.** What about the TR-FRET signal (CDK12–cyclin K and DDB1 [1]; compound concentration 3.6 nM) of the same compound?
**A.** 0.5887 and 0.6016

**Q.** What about the TR-FRET signal (CDK12–cyclin K and DDB1 [1]; compound concentration 7.92001 nM) of the same compound?
**A.** 0.8771 and 0.9002

**Q.** And the TR-FRET signal (CDK12–cyclin K and DDB1 [1]; compound concentration 15.84 nM)?
**A.** 1.301 and 1.376

**Q.** And the TR-FRET signal (CDK12–cyclin K and DDB1 [1]; compound concentration 30.96 nM)?
**A.** 2 and 2.052

**Q.** What about the TR-FRET signal (CDK12–cyclin K and DDB1 [1]; compound concentration 62.6401 nM) of the same compound?
**A.** 2.747 and 2.77

**Q.** What about the TR-FRET signal (CDK12–cyclin K and DDB1 [1]; compound concentration 125.28 nM) of the same compound?
**A.** 3.33 and 3.298

**Q.** And the TR-FRET signal (CDK12–cyclin K and DDB1 [1]; compound concentration 244.8 nM)?
**A.** 3.75 and 3.634

**Q.** What about the TR-FRET signal (CDK12–cyclin K and DDB1 [1]; compound concentration 993.601 nM) of the same compound?
**A.** 4.177 and 4.02

**Q.** And the TR-FRET signal (CDK12–cyclin K and DDB1 [1]; compound concentration 2001.6 nM)?
**A.** 4.179 and 4.0366

**Q.** What about the EC50 (CDK12–cyclin K and DDB1 [1]; [3]) of the same compound?
**A.** 38 ± 1 nM

**Q.** What about the EC50 (CDK12–cyclin K and DDB1 [1]; sheet MOESM7, read-out: log TR-FRET EC50 (converted)) of the same compound?
**A.** 37.8 nM

**Q.** What about the EC50 (CDK12–cyclin K and DDB1 [1]; [4]) of the same compound?
**A.** 37.8 nM

**Q.** For `Cc1cc2nc(CNc3nc(N4CCN(C)CC4)nc4c(Br)cnn34)[nH]c2cc1C` [DS73, reference compound], which “TR-FRET signal at compound concentration 0.468 nM” value (CDK12–cyclin K and DDB1 [1]; compound concentration 0.468 nM, raw replicate titration data) is on record?
**A.** 0.2078 and 0.3464 and 0.3268 and 0.2028

**Q.** What about the “TR-FRET signal at compound concentration 2.16 nM” value (CDK12–cyclin K and DDB1 [1]; compound concentration 2.16 nM, raw replicate titration data) of the same compound?
**A.** 0.3181 and 0.4574 and 0.408 and 0.306

**Q.** What about the “TR-FRET signal at compound concentration 3.6 nM” value (CDK12–cyclin K and DDB1 [1]; compound concentration 3.6 nM, raw replicate titration data) of the same compound?
**A.** 0.571 and 0.665 and 0.6145 and 0.5357

**Q.** What about the “TR-FRET signal at compound concentration 7.92001 nM” value (CDK12–cyclin K and DDB1 [1]; compound concentration 7.92001 nM, raw replicate titration data) of the same compound?
**A.** 1.164 and 1.12 and 0.9555 and 1.048

**Q.** What about the “TR-FRET signal at compound concentration 15.84 nM” value (CDK12–cyclin K and DDB1 [1]; compound concentration 15.84 nM, raw replicate titration data) of the same compound?
**A.** 2.581 and 2.125 and 1.889 and 2.1704

**Q.** What about the “TR-FRET signal at compound concentration 30.96 nM” value (CDK12–cyclin K and DDB1 [1]; compound concentration 30.96 nM, raw replicate titration data) of the same compound?
**A.** 3.773 and 3.741 and 3.496 and 3.714

**Q.** And the “TR-FRET signal at compound concentration 62.6401 nM” value (CDK12–cyclin K and DDB1 [1]; compound concentration 62.6401 nM, raw replicate titration data)?
**A.** 3.949 and 4.21 and 4.046 and 3.965

**Q.** And the “TR-FRET signal at compound concentration 125.28 nM” value (CDK12–cyclin K and DDB1 [1]; compound concentration 125.28 nM, raw replicate titration data)?
**A.** 3.981 and 4.358 and 4.135 and 3.99

**Q.** And the “TR-FRET signal at compound concentration 244.8 nM” value (CDK12–cyclin K and DDB1 [1]; compound concentration 244.8 nM, raw replicate titration data)?
**A.** 3.942 and 4.1851 and 4.076 and 4.006

**Q.** What about the “TR-FRET signal at compound concentration 993.601 nM” value (CDK12–cyclin K and DDB1 [1]; compound concentration 993.601 nM, raw replicate titration data) of the same compound?
**A.** 4.043 and 4.296 and 4.229 and 3.955

**Q.** What about the “TR-FRET signal at compound concentration 2001.6 nM” value (CDK12–cyclin K and DDB1 [1]; compound concentration 2001.6 nM, raw replicate titration data) of the same compound?
**A.** 4.148 and 4.166 and 4.035 and 3.981

**Q.** And the EC50 (CDK12–cyclin K and DDB1 [1]; [3])?
**A.** 15 ± 1 nM

**Q.** What about the EC50 (CDK12–cyclin K and DDB1 [1]; [4]) of the same compound?
**A.** 15.3 nM

**Q.** What about the Kd (CDK12–cyclin K and DDB1 [2]; [5]) of the same compound?
**A.** 0.2 ± 0.3 nM

**Q.** What about the “TR-FRET Kd*” value (CDK12–cyclin K and DDB1 [2]; [5]) of the same compound?
**A.** subnanomolar range

**Q.** What about the TR-FRET signal (CDK12–cyclin K and DDB1 [2]; 10 nM CDK12-cyclin K, compound 0.468 nM) of the same compound?
**A.** 0.1115

**Q.** What about the TR-FRET signal (CDK12–cyclin K and DDB1 [2]; 10 nM CDK12-cyclin K, compound 2.16 nM) of the same compound?
**A.** 0.172

**Q.** What about the TR-FRET signal (CDK12–cyclin K and DDB1 [2]; 10 nM CDK12-cyclin K, compound 3.6 nM) of the same compound?
**A.** 0.3284

**Q.** And the TR-FRET signal (CDK12–cyclin K and DDB1 [2]; 10 nM CDK12-cyclin K, compound 7.92 nM)?
**A.** 0.4288

**Q.** And the TR-FRET signal (CDK12–cyclin K and DDB1 [2]; 10 nM CDK12-cyclin K, compound 15.84 nM)?
**A.** 0.4992

**Q.** And the TR-FRET signal (CDK12–cyclin K and DDB1 [2]; 10 nM CDK12-cyclin K, compound 30.96 nM)?
**A.** 0.5275

**Q.** What about the TR-FRET signal (CDK12–cyclin K and DDB1 [2]; 10 nM CDK12-cyclin K, compound 62.6399 nM) of the same compound?
**A.** 0.5247

**Q.** And the TR-FRET signal (CDK12–cyclin K and DDB1 [2]; 10 nM CDK12-cyclin K, compound 125.279 nM)?
**A.** 0.5329

**Q.** And the TR-FRET signal (CDK12–cyclin K and DDB1 [2]; 10 nM CDK12-cyclin K, compound 244.8 nM)?
**A.** 0.5439

**Q.** What about the TR-FRET signal (CDK12–cyclin K and DDB1 [2]; 10 nM CDK12-cyclin K, compound 993.6 nM) of the same compound?
**A.** 0.5387

**Q.** What about the TR-FRET signal (CDK12–cyclin K and DDB1 [2]; 10 nM CDK12-cyclin K, compound 2001.6 nM) of the same compound?
**A.** 0.5235

**Q.** What about the Kd (CDK12–cyclin K and DDB1 [2]; 50 nM CDK12-cyclin K + 100 nM DDB1, n = 1) of the same compound?
**A.** 2 ± 1 nM

**Q.** And the TR-FRET signal (CDK12–cyclin K and DDB1 [2]; 50 nM CDK12-cyclin K, compound 0.468 nM)?
**A.** 0.2245

**Q.** What about the TR-FRET signal (CDK12–cyclin K and DDB1 [2]; 50 nM CDK12-cyclin K, compound 2.16 nM) of the same compound?
**A.** 0.505

**Q.** What about the TR-FRET signal (CDK12–cyclin K and DDB1 [2]; 50 nM CDK12-cyclin K, compound 3.6 nM) of the same compound?
**A.** 0.4237

**Q.** What about the TR-FRET signal (CDK12–cyclin K and DDB1 [2]; 50 nM CDK12-cyclin K, compound 7.92 nM) of the same compound?
**A.** 0.5318

**Q.** What about the TR-FRET signal (CDK12–cyclin K and DDB1 [2]; 50 nM CDK12-cyclin K, compound 15.84 nM) of the same compound?
**A.** 0.9093

**Q.** What about the TR-FRET signal (CDK12–cyclin K and DDB1 [2]; 50 nM CDK12-cyclin K, compound 30.96 nM) of the same compound?
**A.** 1.797

**Q.** What about the TR-FRET signal (CDK12–cyclin K and DDB1 [2]; 50 nM CDK12-cyclin K, compound 62.6399 nM) of the same compound?
**A.** 2.967

**Q.** What about the TR-FRET signal (CDK12–cyclin K and DDB1 [2]; 50 nM CDK12-cyclin K, compound 125.279 nM) of the same compound?
**A.** 3.159

**Q.** And the TR-FRET signal (CDK12–cyclin K and DDB1 [2]; 50 nM CDK12-cyclin K, compound 244.8 nM)?
**A.** 3.183

**Q.** And the TR-FRET signal (CDK12–cyclin K and DDB1 [2]; 50 nM CDK12-cyclin K, compound 993.6 nM)?
**A.** 3.081

**Q.** What about the TR-FRET signal (CDK12–cyclin K and DDB1 [2]; 50 nM CDK12-cyclin K, compound 2001.6 nM) of the same compound?
**A.** 3.197
